Data published in publication PMC8508960, “Ruthenium Half-Sandwich Type Complexes with Bidentate Monosaccharide Ligands Show Antineoplastic Activity in Ovarian Cancer Cell Models through Reactive Oxygen Species Production” (International Journal of Molecular Sciences, 2021).
“And” between values parts separate entries of the source, which are not always exact repeats. Equal entries are not always repeated. “Also recorded” adds a separate entry of the source.

Experiments:
[1] = Determination of the distribution coefficients (logD), n-octanol/PBS; type: physicochemical; details: n-octanol / PBS pH = 7.40
Protocol: Prior to the experiments, n-octanol was saturated with aqueous PBS solution (pH = 7.40) and vice versa. The corresponding complex (approximately 0.2–0.3 mg) was dissolved in a mixture of 2.50 mL of pre-saturated n-octanol and 2.50 mL of pre-saturated PBS buffer, and the mixture was vigorously stirred for 3 days. According to the NMR stability measurements, this time was necessary to reach equilibrium between the various ionic complex species. Due to the lipophilic/hydrophilic character of the complexes, those with benzoyl protection or the non-sugar derivative could mostly be found in the n-octanol, while the acetyl and non-protected complexes could be found in the aqueous PBS phase. The appropriate separated solution was centrifuged (ScanSpeed 406G instrument, 4000 RPM for 5 min), and the absorption of the “stock solution” was measured (VWR UV-1600PC Spectrophotometer, 270–420 nm). Then 2.00 mL of stock solution was stirred vigorously with 16.00 mL of pre-saturated, clean n-octanol or PBS solution. After 1 day, the phases were separated and centrifuged, and the absorption of the solution was measured again. From the absorption difference of the stock solutions, the distribution coefficient (D) was calculated according to the previously described formulae [66].

[2] = tested on: A2780 human ovarian carcinoma cells; test: SRB proliferation assay (48 h) on A2780 cells; type: cell-based; details: for cytostatic activity in long-term SRB assay (in words): A2780 cells, 100–0.0017 µM; for Hill slope (span over cell lines): SRB curves, A2780 and ID8 cells; for A2780 Hill Slope / IC50: SRB, nonlinear regression, N/A = could not be calculated/had no effect
Protocol: (§1) Cells were cultured under standard cell culture conditions, 37 °C, 5% CO2, humidified atmosphere. A2780 cells were cultured in RMPI 1640 medium supplemented with 10% fetal calf serum, 2 mM glutamine, and 1% penicillin–streptomycin (Sigma-Aldrich). ID8 cells were cultured in high-glucose DMEM (4.5 g/L glucose) supplemented with 4% fetal calf serum, 2 mM glutamine, 1% penicillin–streptomycin (Sigma-Aldrich), and 1% ITS supplement (Sigma-Aldrich I3146). U251 cells were maintained in MEM (Sigma-Aldrich), 10% fetal bovine serum (Sigma-Aldrich), 1% penicillin/streptomycin (Invitrogene), and 2 mM glutamine. MCF7 cells were maintained in MEM (Sigma-Aldrich), 10% fetal bovine serum (Sigma-Aldrich), 1% penicillin/streptomycin (Invitrogen, Waltham, MA, USA), and 2 mM glutamine. Capan2 cells were maintained in MEM (Sigma-Aldrich), 10% fetal bovine serum (Sigma-Aldrich), 1% penicillin/streptomycin (Invitrogen), and 2 mM glutamine. Human primary dermal fibroblasts were cultured in low-glucose DMEM (1 g/L glucose) supplemented with 20% fetal calf serum, 2 mM glutamine, and 1% penicillin–streptomycin (Sigma-Aldrich).
(§2) The SRB accumulation assay assesses protein content in a sample, and it was used to assess cell proliferation. The SRB accumulation assay was performed similarly to [68]. Cells were seeded in 96-well plates. The next day, cells were treated with the compounds for 48 h in the concentrations indicated in a cell incubator. At the end of treatment, cells were fixed with 10% trichloroacetic acid (TCA). Fixed cells were stained with SRB (0.4% m/v dissolved in 1% acetic acid) for 60 min. Fixed cells were washed in 1% acetic acid three times; acetic acid was removed, and cells were left to dry. Protein-bound SRB was released by adding 100 µL of 10 mM Tris base. Plates were measured in a plate photometer (Thermo Scientific Multiscan GO spectrophotometer, Waltham, MA, USA) at 540 nm. On each plate, wells were designed to contain untreated cells. In calculations, the readings for these wells were considered as 1, and all readings were expressed relative to these values.
(§3) Statistical analysis was performed using Graphpad Prism version 8.0.1. Values were tested for normal distribution using the D’Agostino and Pearson normality test. When necessary, values were log-normalized or were normalized using the Box–Cox normalization method, as indicated in the figure captions. Nonlinear regression was performed using the built-in “[Inhibitor] vs. response—variable slope (four parameters), least square fit” utility of Graphpad that yielded IC50 and Hill slope values.

[3] = tested on: ID8 cells; test: SRB proliferation assay (48 h) on ID8 cells; type: cell-based; details: for cytostatic activity in long-term SRB assay (in words): ID8 cells; for IC50 / ID8 Hill Slope: SRB, nonlinear regression, N/A = could not be calculated/had no effect
Protocol: as §1, §2, §3

[4] = tested on: human primary skin fibroblasts; test: SRB proliferation assay (48 h) on primary fibroblasts; type: cell-based
Protocol: as §1, §2, §3

[5] = tested on: U251 cells (glioblastoma model); test: SRB proliferation assay (48 h) on U251 cells; type: cell-based; details: nonlinear regression
Protocol: as §1, §2, §3

[6] = tested on: MCF7 cells (breast cancer); test: SRB proliferation assay (48 h) on MCF7 cells; type: cell-based; details: nonlinear regression
Protocol: as §1, §2, §3

[7] = tested on: Capan2 (pancreatic adenocarcinoma); test: SRB proliferation assay (48 h) on Capan2 cells; type: cell-based; details: nonlinear regression
Protocol: as §1, §2, §3

[8] = tested on: A2780 human ovarian carcinoma cells; test: MTT reduction assay (4 h, rapid toxicity) on A2780 cells; type: cell-based; details: for effect on MTT signal above 10 µM: above 10 µM concentration
Protocol: as §1
(§4) The MTT reduction assay assesses the activity of mitochondrial complex I, and it was used to assess rapid toxicity. The MTT reduction assay was performed similarly to [67]. Cells were seeded in 96-well plates. The next day, cells were treated with the compounds for 4 h in the concentrations indicated in a cell incubator. At the end of treatment, MTT was added in 0.5 mg/mL final concentration, and cells were incubated at 37 °C in a cell incubator. Then, culture media was removed, the reduced MTT dye was resolved in dimethyl sulfoxide (DMSO), and plates were measured in a plate photometer (Thermo Scientific Multiscan GO spectrophotometer, Waltham, MA, USA) at 540 nm. On each plate, wells were designed to contain untreated/vehicle-treated cells. In calculations, the readings for these wells were considered as 1, and all readings were expressed relative to these values.

[9] = tested on: ID8 cells; test: MTT reduction assay (4 h, rapid toxicity) on ID8 cells; type: cell-based; details: above 10 µM concentration
Protocol: as §1, §4

[10] = tested on: human primary skin fibroblasts; test: MTT reduction assay (4 h, rapid toxicity) on primary fibroblasts; type: cell-based
Protocol: as §1, §4

[11] = tested on: A2780 cells; test: Annexin V-FITC, PI double staining (flow cytometry); type: cell-based, human; details: concentration corresponding to IC50, 2 h, 4 h or 48 h
Protocol: Annexin V–PI double staining was applied to assess apoptotic and necrotic cell death similar to [37, 38, 69]. A2780 cells were treated with the indicated compounds at the concentration corresponding to their IC50 value for 2, 4, and 48 h. The 4 and 48 h time points correspond to the time points for the MTT and SRB assays, while the 2 h time point reflects the optimum time point for the detection of apoptotic or necrotic cell death. Quadrants were set on the basis of the FITC and PI values observed for the vehicle-treated cells.

[12] = tested on: A2780 cells; test: Western blotting of 4-hydroxy-nonenal (4HNE), oxidative stress marker; type: cell-based, human; details: concentration corresponding to IC50, 48 h
Protocol: The preparation of protein extracts, the separation of protein extracts in SDS-polyacrylamide gel electrophoresis, and the subsequent Western blotting were performed as described in [70] using the antibodies in Table 4. Enhanced chemiluminescence was developed using ChemiDoc Imager, (Bio-Rad, Hercules, CA, USA). Densitometry was performed using Image Lab Touch Software, Bio-Rad, Hercules, CA, USA).

[13] = tested on: A2780 cells; test: SRB assay on A2780 cells with antioxidant cotreatment (GSH, NAC, MitoTEMPO, vitamin E, Trolox); type: cell-based, human; details: 48 h
Protocol: as §2

[14] = tested on: A2780 cells; test: SRB assay on A2780 cells with or without 3 µM rucaparib; type: cell-based, human; details: 48 h, vehicle (no rucaparib)
Protocol: as §2, §3

Row | SMILES | logD [1] | cytostatic activity in long-term SRB assay (in words) [2] | Hill slope (span over cell lines) [2] | A2780 Hill Slope [2] | IC50 [2] [µM] | cytostatic activity in long-term SRB assay (in words) [3] | IC50 [3] | ID8 Hill Slope [3] | IC50 [5] [µM] | U251 Hill Slope [5] | IC50 [6] [µM] | MCF7 Hill Slope [6] | Capan2 Hill Slope [7] | IC50 [7] [µM] | effect in short-term MTT assay, rapid toxicity (in words) [8] | effect in short-term MTT assay, rapid toxicity (in words) [10] | proportions of PI-positive, annexin V-positive and double-positive cells [11] | expression of oxidative stress marker 4-hydroxy-nonenal (4HNE) [12] | effect of GSH and NAC cotreatment on the cytostatic effects of the complex [13] | effect of MitoTEMPO on the cytostatic effects of the complex [13] | further results
1 | Cc1ccc(C(C)C)cc1.F[P-](F)(F)(F)(F)F.O=C(OCC1OC(n2cc(-c3ccccn3)nn2)C(OC(=O)c2ccccc2)C(OC(=O)c2ccccc2)C1OC(=O)c1ccccc1)c1ccccc1.[Cl][Ru+] (mixture of isomers) [Ru-2a] | 2.85 | cytostatic properties | 2–3 | 1.95 | 0.9 | cytostatic | 1.5 µM and 1.53 µM | 2.50 | 2.82 | 1.75 | 1.29 | 1.85 | 2.43 | 2.18 | cytostatic properties | no effect | did not largely increase | increase in the expression | attenuated the cytostatic effects | did not modulate the effects | Fibroblast Hill Slope ([4]; SRB, nonlinear regression, N/A = could not be calculated/had no effect): 0.78; effect on SRB signal at 100 µM ([4]; primary human fibroblasts, 100 µM): reduced the SRB signal; effect on MTT signal above 10 µM [8]: reduced the MTT signal; effect on MTT signal above 10 µM [9]: reduced the MTT signal; IC50 [14]: 1.38 µM
2 | Cc1ccc(C(C)C)cc1.F[P-](F)(F)(F)(F)F.O=C(OCC1OC(c2nnc(-c3ccccn3)o2)C(OC(=O)c2ccccc2)C(OC(=O)c2ccccc2)C1OC(=O)c1ccccc1)c1ccccc1.[Cl][Ru+] (mixture of isomers) [Ru-8] | 2.44 | cytostatic properties | 2–3 | 3.50 | 4.27 | cytostatic | 7.94 µM | 3.31 | 4.49 | 2.50 | 3.75 | 2.06 | 1.66 | 3.82 | cytostatic properties | no effect | did not largely increase | increase in the expression | attenuated the cytostatic effects | did not modulate the effects | effect in long-term SRB assay (in words) ([4]; primary human fibroblasts): no effect; effect on MTT signal above 10 µM [8]: reduced the MTT signal; effect on MTT signal above 10 µM [9]: reduced the MTT signal; IC50 [14]: 4.17 µM
3 | Cc1ccc(C(C)C)cc1.F[P-](F)(F)(F)(F)F.O=C(OCC1OC(c2n[n+]3c(o2)-c2cccc[n+]2[Ru-]3[Cl])C(OC(=O)c2ccccc2)C(OC(=O)c2ccccc2)C1OC(=O)c1ccccc1)c1ccccc1 (mixture of isomers) [Ru-4] | 2.41 | cytostatic properties | 2–3 | 2.62 | 6.19 | cytostatic | 5.66 µM | 3.04 | 4.17 | 2.46 | 3.74 | 2.01 | 1.81 | 3.27 | cytostatic properties | no effect | did not largely increase | increase in the expression | attenuated the cytostatic effects | did not modulate the effects | effect in long-term SRB assay (in words) ([4]; primary human fibroblasts): no effect; also recorded: no activity; IC50 [14]: 6.18 µM
